{"source": "patent US20230382916A1", "about": "“HETEROARYL HETEROCYCLIC COMPOUNDS AND USES THEREOF” (HUTCHISON MEDIPHARMA LIMITED, priority 2020, published 2023)", "key": {"[1]": {"assay": "Stability test in liver microsomes (rat)", "format": "in vitro ADME", "conditions": "rat liver microsomes 0.5 mg/mL, 1 μM compound", "method": "(§1) Both male CD-1 mouse pooled liver microsomes and male SD rat pooled liver microsomes were purchased from BioreclamationIVT Corporation, USA.\n(§2) The test compound stock solution was diluted with an organic solvent (usually a mixture of acetonitrile, methanol and water with various ratios, depending on the solubility of the compound, if necessary, 1 N hydrochloric acid or 1 N sodium hydroxide would be added to facilitate solubilization) to the 0.1 mM (the final concentration of the compound in the reaction system was 1 μM) and the concentration percentage of the organic solvents in the incubation system no more than 1% (wherein the percentage of DMSO was required to be no more than 0.1%). An appropriate amount of 100 mM NADP, 500 mM G-6-P and 100 Unit/mL G-6-PDH were mixed and diluted with ultrapure water (the final system contains 1 mM NADP, 5 mM G-6-P and 1 Unit/mL G-6-PDH), pre-incubated in a 37° C. water bath for 10 minutes and then placed on ice for use as a NADPH regeneration solution. 20 mg/mL liver microsomes solution and 200 mM phosphate buffer were mixed, and diluted with ultrapure water to give a liver microsomes solution containing 2.5 mg/mL liver microsomes (the final concentration of the reaction system is 0.5 mg/mL) and 50 mM phosphate buffer. The diluted liver microsomes solution was mixed with 0.1 mM compound solution, a mixture of 100 mM EDTA, 300 mM MgCl2 solution, 200 mM phosphate buffer (the final system was 3 mM MgCl2, 1 mM EDTA and 50 mM phosphate buffer) and water in an appropriate volume was added. Finally, the NADPH regeneration solution was added, then the reaction solution was placed in a 37° C. water bath to start the reaction (the reaction time was 30 minutes), and the reaction was stopped by adding the ice-cold acetonitrile reaction stopping solution containing the internal standard. The 0-minute sample was not incubated in a 37° C. water bath, and its difference from the 30-minute sample further lies in that the ice-cold acetonitrile reaction stopping solution containing the internal standard was added first, and then the NADPH regeneration solution was added. The sample added with the reaction stopping internal standard solution was vortexed and mixed well, and then centrifuged at 4400 rpm for 10 minutes. The supernatant was taken and diluted ten times with 50% methanol for LC-MS/MS analysis.\n(§3) LC-MS/MS was used to determine the concentration of the compound in the sample. The percentage of the remaining compound after 30 minutes of incubation comparing with that in the 0-minute sample was calculated using the peak area ratio of the compound to the internal standard as an indicator, to evaluate the metabolic stability of the compound."}, "[2]": {"assay": "Stability test in liver microsomes (mouse)", "format": "in vitro ADME", "conditions": "mouse liver microsomes 0.5 mg/mL, 1 μM compound", "method": "as §1, §2, §3"}, "[3]": {"test_system": "idiopathic thrombocytopenic purpura induced by anti-mouse CD41 antibodies", "assay": "Idiopathic thrombocytopenic purpura induced by anti-CD41 antibody in mice, level of platelets", "format": "in vivo", "method": "Male C57BL/6 mice were purchased from Shanghai Lingchang Biotechnology Co., Ltd. (certificate number 20180003011079, initial body weight of 18-20 grams), and were randomly grouped according to Table 4, with 8 mice in each group. […] When modeling, each mouse was intraperitoneally injected with 200 μL of PBS solution containing […] of anti-mouse CD41 antibodies (BD, Cat #: 553487, Lot #: 7026765).\nEight hours and twenty-four hours after modeling, the whole blood was collected and placed in a centrifuge tube coated with 10% citrate-phosphate-dextrose-adenine (CPDA), and the level of platelets (PLT) in the whole blood was measured by an XT-2000i (SYSMEX) automatic blood analyzer (Shanghai Laboratory Animal Research Centre Sino-British SIPPR/B & K Lab Animal Ltd).\nThe average level of platelets in peripheral blood was analyzed with Graphpad statistical software by one way ANOVA followed by Fisher LSD multiple comparison test, and the p value was calculated, wherein *p<0.05 indicated a statistically significant difference compared with the vehicle control group, **p<0.01 indicated a statistically extremely significant difference compared with the vehicle control group, and ##p<0.01 indicated a statistically extremely significant difference compared with the normal group.\nRR %=(PLTtreatment−PLTmodel)/(PLTnaive−PLTmodel)×100%."}, "[4]": {"test_system": "anti-IgD antibody-induced B cell activation in mice whole blood", "assay": "In vivo efficacy of the inhibitory effect on BTK target: anti-IgD antibody-induced B cell activation in mice whole blood after oral dosing", "set-up": "species or system mouse", "conditions": "5 mg/kg oral single dose, 16 h", "method": "Objects: B cells in mice whole blood were induced and activated by the anti-IgD antibody, and the inhibitory effect of the compound of the present invention on B cell activation in vivo was studied, so as to determine the inhibitory effect of the compound of the present invention on the BTK target in vivo.\nMethods: C57BL/6 mice (female, 18-20 g, purchased from Shanghai Lingchang Biotechnology Co., Ltd.) were grouped according to Table 1.\nThe animals of each group were administered, then were placed in CO2 for anesthesia at designated time points, blood samples were taken from […] via retro-orbital bleeding, and heparin was used for anticoagulation; 90 μL of whole blood was taken from mice of each group, and added to a 96 well culture plate, and anti-mouse IgD antibody (BIO-RAD, Cat #MCA4693) was added to each well to a final concentration of […] (respectively for each drug-treated group and anti-IgD antibody-inducted vehicle group); in addition, 90 μL of whole blood of mice in the vehicle group was taken and added to the 96-well culture plate, and PBS (phosphate buffer, GIBCO, Cat #C20012500BT) was added to each well to a final concentration of 0.01 μg/L (namely, the vehicle control group); Each group was mixed well and incubated in a 37° C./5% CO2 incubator for 4 hours. In addition, the blood of mice in the drug-treated group was centrifuged to separate plasma for blood concentration analysis.\nB cell activation ratio=percentage of CD69^+CD19^+ double positive B cells/percentage of CD19^+ single positive B cells\nInhibition ratio=(percentage of B cell activation ratio in anti-IgD antibody-induced vehicle group−percentage of B cell activation ratio in drug-treated group)/(percentage of B cell activation ratio in anti-IgD antibody−induced vehicle group-percentage of B cell activation ratio in vehicle control group)×100%\nAll data are represented by mean±standard error. For the comparison between each drug-treated group and the anti-IgD antibody-induced vehicle group, p value was calculated by Graphpad Prism using one-way ANOVA analysis of variance and Dunnett's test, and for the comparison between each drug-treated group, p value was calculated by using unpaired t test."}}}
{"compound": "C[C@H]1CN(C2COC2)C[C@H](C)N1c1ccc(Nc2cc(-c3ccnc(-n4ccn5c6c(cc5c4=O)CC(C)(C)C6)c3CO)cn(C)c2=O)nc1", "note": "[Compound 1, 2-(5-((5-((2S,6S)-2,6-dimethyl-4-(oxetan-3-yl)piperazin-1-yl)pyridin-2-yl)amino)-3′-(hydroxymethyl)-1-methyl-6-oxo-1,6-dihydro-[3,4′-bipyridin]-2′-yl)-7,7-dimethyl-7,8-dihydro-2H-cyclopenta[4,5]pyrrolo[1,2-a]pyrazin-1(6H)-one]", "values": [{"measurement": "RLM, percentage of the remaining compound after 30 minutes of incubation", "setting": "[1]", "value": 87.9, "unit": "%"}, {"measurement": "MLM, percentage of the remaining compound after 30 minutes of incubation", "setting": "[2]", "value": 91.6, "unit": "%"}, {"measurement": "recovery rate of platelets", "setting": "[3]; 0.004 mg/kg oral single dose, 8 hours after modeling", "value": 25, "unit": "%"}, {"measurement": "recovery rate of platelets", "setting": "[3]; 0.004 mg/kg oral single dose, 24 hours after modeling", "value": 5, "unit": "%"}, {"measurement": "recovery rate of platelets", "setting": "[3]; 0.04 mg/kg oral single dose, 8 hours after modeling", "value": 37, "unit": "%"}, {"measurement": "recovery rate of platelets", "setting": "[3]; 0.04 mg/kg oral single dose, 24 hours after modeling", "value": 21, "unit": "%"}, {"measurement": "recovery rate of platelets", "setting": "[3]; 0.4 mg/kg oral single dose, 8 hours after modeling", "value": 44, "unit": "%"}, {"measurement": "recovery rate of platelets", "setting": "[3]; 0.4 mg/kg oral single dose, 24 hours after modeling", "value": 29, "unit": "%"}, {"measurement": "recovery rate of platelets", "setting": "[3]; 4 mg/kg oral single dose, 8 hours after modeling", "value": 51, "unit": "%"}, {"measurement": "recovery rate of platelets", "setting": "[3]; 4 mg/kg oral single dose, 24 hours after modeling", "value": 29, "unit": "%"}, {"measurement": "minimum effective dose", "setting": "[3]; single oral dose, platelets 8 hours after modeling", "value": 0.04, "unit": "mg/kg"}, {"measurement": "Inhibition ratio (%) on B cell activation", "setting": "[4]", "value": 60, "unit": "%"}, {"measurement": "B cell activation ratio (the population of activated B cells in total B cells)", "setting": "[4]; mean ± standard error", "value": "16.0 ± 3.9"}, {"measurement": "Inhibition ratio (%) on B cell activation", "setting": "[4]; listed as compound 1", "value": 60, "unit": "%"}]}
